Measurements from patent EP4810483A1, “6- AND 5-HETEROARYL DERIVATIVES AND USE THEREOF” (CMS Research & Development Pte. Ltd., priority 2023, dated 2025).
Where two headings read alike, the source gives them in different places.

Key:
hERG potassium channel = molecular target: T1, hERG potassium channel (Homo sapiens, UniProt Q12809); assay: Automated patch clamp (Qpatch) assay for hERG potassium channel activity; type: cell-based
T1 construct: expressed in transfected cells; host or cells: CHO-hERG
T1 sequence (Q12809 whole entry): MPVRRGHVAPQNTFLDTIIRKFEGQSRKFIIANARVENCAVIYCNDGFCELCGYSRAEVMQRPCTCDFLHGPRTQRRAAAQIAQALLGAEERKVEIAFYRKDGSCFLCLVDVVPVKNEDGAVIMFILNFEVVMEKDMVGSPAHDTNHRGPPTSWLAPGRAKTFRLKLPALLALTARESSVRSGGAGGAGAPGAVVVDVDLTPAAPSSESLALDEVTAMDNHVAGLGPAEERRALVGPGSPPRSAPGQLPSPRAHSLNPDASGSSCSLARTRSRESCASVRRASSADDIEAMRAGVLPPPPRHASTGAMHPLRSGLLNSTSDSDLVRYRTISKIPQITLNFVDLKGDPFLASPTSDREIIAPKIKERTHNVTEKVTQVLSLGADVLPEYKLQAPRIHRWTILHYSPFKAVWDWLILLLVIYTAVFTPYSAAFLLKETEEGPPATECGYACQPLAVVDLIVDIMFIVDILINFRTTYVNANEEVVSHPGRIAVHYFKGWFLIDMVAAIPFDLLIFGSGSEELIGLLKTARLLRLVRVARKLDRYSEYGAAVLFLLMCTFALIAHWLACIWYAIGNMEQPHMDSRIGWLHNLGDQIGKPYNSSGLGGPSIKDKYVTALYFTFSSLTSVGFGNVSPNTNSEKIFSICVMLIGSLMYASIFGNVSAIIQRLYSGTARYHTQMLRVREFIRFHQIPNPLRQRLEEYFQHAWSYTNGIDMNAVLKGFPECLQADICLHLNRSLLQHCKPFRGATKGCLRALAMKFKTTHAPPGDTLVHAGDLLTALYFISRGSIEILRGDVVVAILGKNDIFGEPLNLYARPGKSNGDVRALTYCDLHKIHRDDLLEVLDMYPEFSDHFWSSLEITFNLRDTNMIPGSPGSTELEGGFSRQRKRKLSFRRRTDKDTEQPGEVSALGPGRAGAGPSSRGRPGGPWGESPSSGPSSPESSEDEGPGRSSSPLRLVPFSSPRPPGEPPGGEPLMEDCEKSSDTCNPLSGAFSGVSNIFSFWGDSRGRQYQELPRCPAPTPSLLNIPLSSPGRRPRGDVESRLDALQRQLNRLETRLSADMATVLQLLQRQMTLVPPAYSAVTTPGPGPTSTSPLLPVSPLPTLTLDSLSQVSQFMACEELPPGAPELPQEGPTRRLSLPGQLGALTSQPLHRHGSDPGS
Method: Assay Example 5: Automated patch clamp (Qpatch) assay for hERG potassium channel activity
CHO-hERG cells were cultured in 175 cm^2 culture flasks. When the cell density reached 60-80%, the culture medium was removed, the cells were washed once with 7 mL of PBS, and then 3 mL of cell dissociation reagent was added for digestion. After complete digestion, 7 mL of culture medium was added to neutralize, and the cells were centrifuged. The supernatant was aspirated, and the cells were resuspended in 5 mL of culture medium to achieve a cell density of 2~5 × 10^6/mL.
The compound stock solution was diluted with DMSO. 10 µL of compound stock solution was added to 20 µL of DMSO solution, followed by 3-fold serial dilution to obtain 6 DMSO concentrations. 4 µL of the compound solution at each of the six DMSO concentrations was added to 396 µL of extracellular solution to achieve a 100-fold dilution to obtain six intermediate concentrations. Then, 80 µL of the compound solution at each of the six intermediate concentrations was added to 320 µL of extracellular solution to achieve a 5-fold dilution to the desired final test concentrations. […]
The electrophysiological process was recorded. […] This voltage stimulation was applied every 15 seconds, and recorded for 2 minutes. The extracellular solution was then given, and recorded for 5 minutes. […]
The assay data were analyzed using GraphPad Prism 5.0 software. […]

CYP3A4 = CYP3A4 (Homo sapiens, UniProt P08684); assay: Drug-drug interaction evaluation: CYP inhibition in human liver microsomes (cocktail method)
Sequence of CYP3A4 (P08684 2-503): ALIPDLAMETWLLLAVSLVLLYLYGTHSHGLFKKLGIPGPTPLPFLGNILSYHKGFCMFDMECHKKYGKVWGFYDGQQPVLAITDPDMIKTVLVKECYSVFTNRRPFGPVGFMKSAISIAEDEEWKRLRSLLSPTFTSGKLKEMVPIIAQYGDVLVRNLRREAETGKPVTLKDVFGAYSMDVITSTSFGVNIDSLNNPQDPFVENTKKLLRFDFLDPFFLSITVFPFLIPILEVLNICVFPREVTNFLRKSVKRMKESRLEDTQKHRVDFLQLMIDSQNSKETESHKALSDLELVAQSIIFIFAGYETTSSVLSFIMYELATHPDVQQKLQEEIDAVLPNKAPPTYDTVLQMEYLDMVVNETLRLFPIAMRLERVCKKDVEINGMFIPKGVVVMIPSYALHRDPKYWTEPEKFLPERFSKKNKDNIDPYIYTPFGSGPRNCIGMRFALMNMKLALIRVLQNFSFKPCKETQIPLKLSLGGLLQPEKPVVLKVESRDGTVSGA
Method: (§1) The cocktail method using specific probe substrates for CYP1A2, CYP2C9, CYP2C19, CYP2D6 and CYP3A was used to evaluate the inhibitory effect of the compounds on the activity of human liver microsomal cytochrome P450 isoenzymes (CYP1A2, CYP2C9, CYP2C19, CYP2D6 and CYP3A).
(§2) Human liver microsomes, probe substrates, positive control inhibitors, and reduced nicotinamide adenine dinucleotide phosphate (NADPH).
(§3) To the corresponding wells of a reaction plate, 20 µL of substrate solution was added; to blank wells, 20 µL of potassium phosphate buffer was added.
(§4) To the corresponding wells, 2 µL of test compound and positive control working solution were added; to inhibitor-free and blank wells, 2 µL of solvent was added.
(§5) Human liver microsome working solution was prepared, and 158 µL of human liver microsome working solution was added to each well of the reaction plate.
(§6) The plate was pre-incubated at 37.0°C for 10 minutes.
(§7) To start the reaction, 20 µL of NADPH cofactor working solution was added to the reaction plate.
(§8) After incubation in a 37.0°C water bath with mixing for 10 minutes, 400 µL of stop solution was added to terminate the reaction.
(§9) The sample plate was centrifuged at 4000 rpm for 20 minutes.
(§10) 200 µL of supernatant was taken and mixed with 100 µL of pure water as diluent, and the plate was shaken to mix well.
(§11) Analysis was performed by liquid chromatography-tandem mass spectrometry (LC-MS/MS).
(§12) Using the percentage of remaining activity as the ordinate and the test compound concentration as the abscissa, a non-linear regression analysis was performed with a three-parameter or four-parameter model using XL fit software to calculate the IC50 value.
(§13) y = (max)/(1 + (((x)/(IC50)))^−hillslope) [formula]
(§14) y = min + (max−min)/(1 + (((x)/(IC50)))^−hillslope) [formula]
(§15) max = maximum enzyme activity; min = minimum enzyme activity; x = concentration of test compound or positive control inhibitor; y = enzyme activity at the corresponding concentration; hillslope = slope; IC50 = half-maximal inhibitory concentration. The four-parameter equation was used when the minimum enzyme activity was within ±10%; otherwise the three-parameter equation was used.

CYP2D6 = CYP2D6 (Homo sapiens, UniProt P10635); assay: as above
Sequence of CYP2D6 (P10635 whole entry): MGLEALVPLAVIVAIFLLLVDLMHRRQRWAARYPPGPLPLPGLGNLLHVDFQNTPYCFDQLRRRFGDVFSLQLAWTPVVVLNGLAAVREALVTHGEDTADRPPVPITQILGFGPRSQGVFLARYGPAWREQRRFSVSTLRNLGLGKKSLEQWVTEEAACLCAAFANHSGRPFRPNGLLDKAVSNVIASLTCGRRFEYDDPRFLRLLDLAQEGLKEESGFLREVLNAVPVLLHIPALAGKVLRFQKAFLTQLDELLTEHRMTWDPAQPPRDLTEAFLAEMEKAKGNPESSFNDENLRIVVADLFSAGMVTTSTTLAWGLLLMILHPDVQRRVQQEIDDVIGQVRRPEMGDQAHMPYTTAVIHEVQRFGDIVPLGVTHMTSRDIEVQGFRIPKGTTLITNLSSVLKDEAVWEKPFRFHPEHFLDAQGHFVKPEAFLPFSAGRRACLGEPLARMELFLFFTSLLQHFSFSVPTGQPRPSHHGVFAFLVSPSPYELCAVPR
Method: as §1, §2, §3, §4, §5, §6, §7, §8, §9, §10, §11, §12, §13, §14, §15

CYP2C19 = CYP2C19 (Homo sapiens, UniProt P33261); assay: as above
Sequence of CYP2C19 (P33261 whole entry): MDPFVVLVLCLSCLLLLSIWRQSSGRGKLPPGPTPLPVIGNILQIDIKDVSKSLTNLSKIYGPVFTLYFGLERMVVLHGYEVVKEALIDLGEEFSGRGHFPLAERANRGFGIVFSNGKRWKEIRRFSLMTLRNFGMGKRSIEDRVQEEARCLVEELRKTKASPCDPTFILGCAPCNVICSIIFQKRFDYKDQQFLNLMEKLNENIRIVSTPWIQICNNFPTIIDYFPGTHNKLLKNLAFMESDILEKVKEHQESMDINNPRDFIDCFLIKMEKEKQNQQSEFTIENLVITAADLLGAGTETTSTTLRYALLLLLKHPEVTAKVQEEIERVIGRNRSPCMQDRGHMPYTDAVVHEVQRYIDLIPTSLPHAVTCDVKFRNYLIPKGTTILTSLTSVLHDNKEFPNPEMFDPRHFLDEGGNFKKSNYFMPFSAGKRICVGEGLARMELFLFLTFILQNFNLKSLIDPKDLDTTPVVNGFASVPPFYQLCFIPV
Method: as §1, §2, §3, §4, §5, §6, §7, §8, §9, §10, §11, §12, §13, §14, §15

CYP2C9 = CYP2C9 (Homo sapiens, UniProt P11712); assay: as above
Sequence of CYP2C9 (P11712 whole entry): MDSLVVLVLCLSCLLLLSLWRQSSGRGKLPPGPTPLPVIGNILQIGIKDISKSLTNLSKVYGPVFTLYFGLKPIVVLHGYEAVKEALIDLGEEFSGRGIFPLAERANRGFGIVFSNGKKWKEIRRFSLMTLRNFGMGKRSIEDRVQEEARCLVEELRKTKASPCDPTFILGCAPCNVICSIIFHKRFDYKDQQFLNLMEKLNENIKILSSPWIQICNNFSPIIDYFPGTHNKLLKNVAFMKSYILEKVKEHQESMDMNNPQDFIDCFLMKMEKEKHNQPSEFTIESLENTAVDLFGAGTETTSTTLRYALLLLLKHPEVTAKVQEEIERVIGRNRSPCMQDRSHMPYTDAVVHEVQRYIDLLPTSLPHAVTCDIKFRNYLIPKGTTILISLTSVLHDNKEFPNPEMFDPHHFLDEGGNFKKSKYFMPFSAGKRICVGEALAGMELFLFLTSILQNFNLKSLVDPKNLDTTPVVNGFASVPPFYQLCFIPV
Method: as §1, §2, §3, §4, §5, §6, §7, §8, §9, §10, §11, §12, §13, §14, §15

CYP1A2 = molecular target: T2, CYP1A2 (Homo sapiens, UniProt P05177); assay: as above
T2 sequence (P05177 1-516): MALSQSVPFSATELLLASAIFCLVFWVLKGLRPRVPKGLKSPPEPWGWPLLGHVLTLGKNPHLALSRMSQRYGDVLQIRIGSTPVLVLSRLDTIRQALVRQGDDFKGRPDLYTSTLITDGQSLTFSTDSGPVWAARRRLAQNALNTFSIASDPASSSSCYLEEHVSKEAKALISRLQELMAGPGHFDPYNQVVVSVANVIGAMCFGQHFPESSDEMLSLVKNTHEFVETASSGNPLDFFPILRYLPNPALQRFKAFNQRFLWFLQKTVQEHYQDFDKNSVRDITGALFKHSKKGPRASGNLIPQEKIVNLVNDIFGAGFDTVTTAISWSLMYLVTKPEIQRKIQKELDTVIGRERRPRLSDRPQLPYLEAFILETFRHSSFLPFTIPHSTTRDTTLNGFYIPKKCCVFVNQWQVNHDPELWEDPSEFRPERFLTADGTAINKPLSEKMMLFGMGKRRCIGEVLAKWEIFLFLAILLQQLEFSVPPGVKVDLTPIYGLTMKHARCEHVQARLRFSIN
Method: as §1, §2, §3, §4, §5, §6, §7, §8, §9, §10, §11, §12, §13, §14, §15

Compound | IC50 (hERG potassium channel; CHO-hERG cells, Qpatch, highest test concentration 40.00 µM, read-out: IC50) [µM] | IC50 (hERG potassium channel) [µM] | IC50 (CYP3A4) [µM] | IC50 (CYP2D6) [µM] | IC50 (CYP2C19) [µM] | IC50 (CYP2C9) [µM] | IC50 (CYP1A2) [µM]
Cc1c(NC(=O)CC(C)(C)C)n(C)c2cc(Nc3ccc(F)cc3)ccc12 [Compound 1] | > 40 | – | – | – | – | – | –
Cc1c(NC(=O)CC(C)(C)C)n(C)c2cc(Nc3ccc(C(F)(F)F)cc3)ccc12 [Compound 5] | – | > 40 | > 50 | – | – | – | –
Cc1nc(Nc2ccc3c(C)c(NC(=O)CC(C)(C)C)n(C)c3c2)ccc1F [Compound 41] | – | – | > 50 | > 50 | > 50 | 11 | 11
